# Assay results as given in patent US12403166B2, “Labisia pumila extract composition and its pharmaceutical formulation” (MEDIKA NATURA SDN. BHD., priority 2021, dated 2025).
# Legend:
# [1] = tested on: glutathione peroxidase (GPx); assay: Glutathione peroxidase (GPx) in DIO rats (anti-oxidant); assay type: in vivo, rat; details: 30 mg/kg, P≤0.01
# [2] = tested on: glutathione S-transferase (GST); details: DIO rats, 30 mg/kg, P≤0.05
compound,measurement,setting,value
CCCCCCCCCCC[C@@H](C[C@@H]1OC(=O)[C@H]1CCCCCC)OC(=O)[C@H](CC(C)C)NC=O [Orlistat],increase in GPx as compared to DIO control group,[1],40.9%
same,increase in GST as compared to DIO control group,[2],10.4%
